Consider one molecule from US20080119558A1, “Drug for Inhibiting Production of Matrix Metalloprotease-9” (Japan Science And Technology Agency, priority 2002, published 2008).

Data set [1] deals with mRNA of human MMP-9 gene. As to the kind of experiment: Detection of mRNA of human MMP-9 gene and human GAPDH gene by RT-PCR in human foreskin keratinocytes. The format is cell-based. The settings on record: 10 nM LMB. As for the experimental part:
(§1) A foreskin of a neonate was treated at 4° C. for 16 hours by a disperse having a casein decomposition activity of 25.0 caseinolytic units/ml. Epidermal was peeled from dermis using a forceps, then, the epidermal was treated with 0.05% trypsin for 5 minutes. The separated human foreskin keratinocytes (HFKs) were allowed to incubate at 37° C. in a plate having a keratinocyte-SFM medium (manufactured by Invitrogen), and sub-cultured over three generations. Then, into two plates obtained by sub-culturing human foreskin keratinocytes (HFKS) over three generations, LMB was added so that the concentrations in the medium were 0 nM and 10 nM, respectively, further, allowed to incubate at 37° C. for 24 hours.
Extraction of all RNAs from cultured human foreskin keratinocytes (HFKs) was conducted according to a method of Wachi et al. (Wachi et al. (1995) FEBS Lett. 36B, 215-219), and the extracted all RNAs were stored at −80° C. in the form of solution having a concentration of 1 μg/ml. A RT-PCR method was conducted using TaKaRa RNA PCR kit (manufactured by TaKaRa). For amplifying 277 base pairs of cDNA for human MMP-9, a sense primer (SEQ ID No. 1) was used for the 5′ end situated at 116 to 136 base pairs, and an antisense primer (SEQ ID No. 2) was used for the 3′ end situated at 372 to 392 base pairs. For amplifying 478 base pairs of cDNA for human GAPDH, a sense primer (SEQ ID No. 3) was used for the 5′ end situated at 547 to 566 base pairs, and an antisense primer (SEQ ID No. 4) was used for the 3′ end situated at 1005 to 1024 base pairs. Reverse transcription of RNA was conducted by incubating at 42° C. for 1 hour. Incubation in PCR of cDNA obtained by reverse transcription was conducted according to the following temperature profile. Namely, for every one cycle, modification of cDNA was conducted at 94° C. for 2 minutes, annealing of a primer was conducted at 60° C. for 30 seconds, and synthesis of a DNA chain by a DNA polymerase was conducted at 72° C. for 1 minute. A solution obtained after 30 cycles was separated, and electrophoresis was conducted using an agarose gel containing ethidium bromide, and the resulted band was observed under ultraviolet ray.
Culturing of a human epidermal keratinocyte and detection of mRNA of a human MMP-9 gene and mRNA of a human GAPDH gene by a RT-PCR method were conducted by the same manner as in Example 6 except that LMB was added into two plates obtained by sub-culturing human foreskin keratinocytes (HFKs) over three generations, so that the concentrations in the medium were 0 nM and 10 nM, respectively, and a calcium chloride aqueous solution was added so that the two concentrations of Ca^+ in the medium were all 1.5 mM, instead of adding LMB into two plates obtained by sub-culturing human foreskin keratinocytes (HFKs) over three generations, so that the concentrations in the medium were 0 nM and 10 nM, respectively, in culturing of human epidermal keratinocytes. […]

Data set [2] relates to skin of hairless mice (Hoes: HR-1). As to the kind of experiment: Ultraviolet B irradiated hairless mouse skin, external application, histology (hematoxylin and eosin). Type of data set: in vivo. As for the experimental part:
Ten 8-weeks old female hairless mice (Hoes: HR-1) were previously bred for 1 week. Five mice (mouse A1, mouse B1, mouse C1, mouse D1, mouse E1) were irradiated at the back with ultraviolet B (UV) of 300 mJ (about 3 MED (minimal erythema dose)), and five mice (mouse A2, mouse B2, mouse C2, mouse D2, mouse E2) were not irradiated with ultraviolet ray. Immediately after irradiation with ultraviolet ray and 24 hours after irradiation with ultraviolet ray, leptomycin B was administered by externally applying a solution of a concentration of 10 μg/ml (20 μM) to mouse B1 and mouse B2, a solution of a concentration of 1 μg/ml (2 μM) to mouse C1 and mouse C2, a solution of a concentration of 100 ng/ml (200 nM) to mouse D1 and mouse D2 and a solution of a concentration of 10 ng/ml (20 nM) to mouse E1 and mouse E2, each in an amount of 0.1 ml by a brush, as a solution containing leptomycin B dissolved in 70% ethanol. To mouse A1 and mouse A2, about 0.1 ml of 70% ethanol was applied by a brush. Then, skins were collected from mouse A1 to mouse E1 irradiated with ultraviolet ray 48 hours after irradiation and mouse A2 to mouse E2 not irradiated with ultraviolet ray. The collected skins were fixed with formalin and embedded in paraffin, then, the slices were stained with hematoxylin and eosin. Slices of skins collected from mouse A1, mouse B1, mouse C1, mouse D1 and mouse E1 and stained and slices of skins collected from mouse A2, mouse B2, mouse C2, mouse D2 and mouse E2 and stained were observed by ECLIPSE E1000M optical microscope (manufactured by NIKON), and the results are shown in FIG. 5. In FIG. 5, A1 to E1 correspond to slices of skins collected from mouse A1 to mouse E1 and stained, respectively, and A2 to E2 correspond to slices of skins collected from mouse A2 to mouse E2 and stained, respectively, and the length of a bar indicates 100 μm.

Data set [3] concerns MMP-9 promoter sequence. Description: Measurement of MMP-9 promoter transcription activity by luciferase assay in human foreskin keratinocytes. The format is cell-based. Particulars: 10 nM LMB; for transcription activity of MMP-9: 24 hours; for Promoter activity suppressed to (fraction of no LMB addition): vector-1 containing KRE-M9 (−73 to +16).
Procedure: A foreskin of a neonate was treated at 4° C. for 16 hours by a disperse having a casein decomposition activity of 25.0 caseinolytic units/ml. Epidermal was peeled from dermis using a forceps, then, the epidermal was treated with 0.05% trypsin for 5 minutes. The separated human foreskin keratinocytes (HFKs) were allowed to incubate at 37° C. in a 24-well plate having a keratinocyte-SFM medium (manufactured by Life Technologies) containing 0.09 mM Ca^+, and sub-cultured over three generations.
A −73 to +16 base sequence containing KRE-M9 of an MMP-9 promoter sequence and a −56 to +16 base sequence containing no KRE-M9 were inserted into pGL3-basic vector (manufactured by Promega) which is a luciferase expression vector containing a luciferase gene according to a method of Kobayashi et al. (Kobayashi et al. (2001) EMBO Rep. 2, 604 to 608), to prepare vector-1 and vector-2.
Using the vector-1 and vector-2 and Fugene 6 (manufactured by Roche) which is a reagent for gene introduction, a vector-1 solution and a vector-2 solution each having a DNA concentration of 3 μg/1 ml were prepared, respectively. Then, the vector solution 1 was added to solutions in 12 wells and the vector solution 2 was added to solutions in the remaining 12 wells each at 37° C., of HFKs culture solutions in the 24-well plates obtained in <Culturing of human epidermal keratinocyte> and gene introduction was performed, further, 10 nM LMB was added to solutions in 6 wells to give a 6-well LMB added plate 1 and LMB was not added to solutions in the remaining 6 wells to give a 6-well LMB no-addition plate 1, of the 12 wells obtained by addition of the vector-1 solution, and 10 nM LMB was added to solutions in 6 wells to give a 6-well LMB added plate 2 and LMB was not added to solutions in the remaining 6 wells to give a 6-well LMB no-addition plate 2, of the 12 wells obtained by addition of the vector-2 solution, then, they were allowed to stand still for 3 hours. Gene introduction of a luciferase gene effected as described above induces the production of MMP-9 and the production of luciferase, and by measuring the light emitting intensity in a light emitting reaction by luciferase by a micro press counter, the production of MMP-9 can be monitored.
Measurement of the transcription activity was conducted by a luciferase assay. The activity of luciferase was measured by Luciferase assay system (manufactured by Promega). As a micro press counter, Microbeta (manufactured by Perkin-Elmer) was used. In this measurement, the total transcription activity after 12 hours was measured using 3 wells among 6 wells, further, the total transcription activity after 24 hours was measured using the remaining 3 wells, each using the 6-well LMB added plate 1, 6-well LMB no-addition plate 1, 6-well LMB added plate 2 and 6-well LMB no-addition plate 2. […] The standard deviation is shown by error bar. […]
Data set [4] has as its system MMP-9. As to the kind of experiment: Detection of MMP-2 and MMP-9 by gelatin zymography in conditioned media of cultured human foreskin keratinocytes. Type of data set: cell-based. The settings on record: HFKs; for concentration of LMB in the medium at which the production of MMP-9 is inhibited: 24 hours. The protocol: as §1, with “Then, into four plates obtained” for “Then, into two plates obtained”, “foreskin keratinocytes (HFKs) over three” for “foreskin keratinocytes (HFKS) over three”, “were 0 nM, 0.4 nM, 2 nM and” for “were 0 nM and”, “24 hours. Then, four conditioned media of the keratinocyte-SFM medium were collected from the four plates, and stored at −30° C. until use in the following detection of MMP-2 and MMP-9 by a gelatin zymography method.” for “24 hours.”
Prior to detection of MMP-2 and MMP-9 by a gelatin zymography method, four conditioned media collected in <Culturing of human epidermal keratinocyte cell> were all allowed to incubate at 35° C. for 1 hour. Then, the above-mentioned conditioned media were dissolved in a solution of pH 7.4 containing 0.05 M Tris-HCl, 5 mM CaCl2, 1% SDS (sodium dodecyl-sulfate) and 5% glycerol, respectively, and the solutions were used as samples for a gelatin zymography method. MMP-2 and MMP-9 were separated from the samples by an SDS-PAGE method using 7.5% polyacrylamide gel containing 0.5% gelatin. After separation by an SDS-PAGE method, the separated gel was washed with a solution containing 2.5% Triton X-100 for 1 hour, to remove SDS. For allowing MMP-2 and MMP-9 separated in the separated gel to decompose gelatin in the separated gel, the separated gel was allowed to incubate at 35° C. for a given time in a buffer solution for reaction (standard conditions: 0.05 M Tris-HCl (pH 7.4)/0.15 M NaCl/5 MM CaCl2/0.02% NaN3). Staining of the separated gel was conducted using a staining solution containing 0.1% Amideblack B-10, and decolorization was conducted using a decolorization solution containing 10 vol % of acetic acid and 30 vol % of methanol.
(§2) Culturing of a human epidermal keratinocyte and detection of MMP-2 and MMP-9 by a gelatin zymography method were conducted by the same manner as in Example 1 except that LMB was added into four plates obtained by sub-culturing human foreskin keratinocytes (HFKS) over three generations, so that the concentrations in the medium were 0 nM, 0.4 nM, 2 nM and 10 nM, respectively, and a calcium chloride aqueous solution was added so that the four concentrations of Ca^+ in the medium were all 1.5 mM, instead of adding LMB into four plates obtained by sub-culturing human foreskin keratinocytes (HFKs) over three generations, so that the concentrations in the medium were 0 nM, 0.4 nM, 2 nM and 10 nM, respectively, in culturing of human epidermal keratinocyte.
as §2, with “(HFKs)” for “(HFKS)”, “TGF-β” for “a calcium chloride aqueous solution”, “TGF-β” for “Ca^+”, “1 ng/ml,” for “1.5 mM,”, “keratinocytes. […]” for “keratinocyte.”

In data set [5] the test system is P388 cell, Lewis Landa carcinoma cell, B16 melanoma cell, Erich carcinoma cell. The settings on record: tumor cells transplanted to mouse; anti-tumor agent containing leptomycin B, parenteral or oral; cited from earlier work.
Where [6] appears, read: UVB 300 mJ irradiated mice B1 to E1, external application 10 μg/ml to 10 ng/ml in 70% ethanol, 0.1 ml, at 0 and 24 hours, skin at 48 hours.

Molecules are shown by their SMILES.

Turning to `CCC(=C/[C@H](C)C/C=C/C(C)=C/[C@@H](C)C(=O)[C@@H](C)[C@H](O)[C@@H](C)C/C(C)=C/C(=O)O)/C=C/[C@@H]1OC(=O)C=C[C@@H]1C` [LMB, Leptomycin B], the “production of MMP-9 (mRNA) as compared with GAPDH” value in data set [1] (stimulation with IL-1α 10^−10 M, Sample 9 and 10 in FIG. 2) is reported as “inhibited”; in data set [1] (stimulation with TGF-β 1 ng/ml, Sample 5 and 6 in FIG. 2) it was “inhibited”; in data set [1] (stimulation with TNF-α 10 ng/ml, Sample 7 and 8 in FIG. 2), “inhibited”; in data set [1] (stimulation with calcium at a high concentration (1.5 mM), Sample 3 and 4 in FIG. 2), “inhibited”; in data set [1] (under no stimulation, 24 hours, Sample 1 and 2 in FIG. 2), “inhibited”. Further, the “inflammatory cell infiltration in dermis and subcutaneous tissue” value in data set [2] (setting [6]) is reported as “suppressed”. The keratinization of epidermal result in data set [2] (setting [6]) was “normal keratinization is manifested in epidermal in a concentration-dependent manner”. Moreover, the “change of skin not irradiated with ultraviolet ray” value in data set [2] (mice B2 to E2 not irradiated, external application 10 μg/ml to 10 ng/ml in 70% ethanol) was “significant change was not found”. In addition, the “transcription activity of MMP-9” value in data set [3] (base sequence 1 (−80 to +16, KRE-M9 and TRE), FIG. 4 (A)) is given as “suppressed”; in data set [3] (base sequence 2 (4-base substitution of KRE-M9 in base sequence 1), FIG. 4 (A)) it was “suppressed”; in data set [3] (base sequence 6 (base substitution of both KRE-M9 and TRE), FIG. 4 (B)), “suppressed”. Further, the “Promoter activity suppressed to (fraction of no LMB addition)” value is “about one-fifth” in data set [3] (12 hours after gene introduction) and “about one-seventh” in data set [3] (24 hours after gene introduction). Moreover, the “specificity of inhibition of the production of MMP-9 as compared with MMP-2” value in data set [4] (gelatin zymography, FIG. 1) is “inhibits the production of MMP-9 more specifically as compared with MMP-2”. Also, the “concentration of LMB in the medium at which the production of MMP-9 is inhibited” value is at least 2 nM in data set [4] (stimulating differentiation by TGF-β 1 ng/ml, FIG. 1 (C)); at least 2 nM in data set [4] (stimulating differentiation by calcium at a high concentration (1.5 mM), FIG. 1 (B)); at least 2 nM in data set [4] (stimulating inflammation by IL-1α 10^−10 M, FIG. 1 (E)); at least 2 nM in data set [4] (stimulating inflammation by TNF-α 10 ng/ml, FIG. 1 (D)); at least 2 nM in data set [4] (under no stimulation, FIG. 1 (A)). Also, the anti-tumor action entry in data set [5] is on record as “strong anti-tumor action”.
